Measured values published in patent US20250177476A1, “ANG-(1-7) OLIGOPEPTIDE DERIVATIVES FOR USE IN MITIGATING AMYLOID-RELATED IMAGING ABNORMALITIES” (ProNeurogen, Inc., priority 2023, published 2025).
No end group written: not given here.

Columns and labels:
[1] = FDA-approved food additive; cited from earlier work
[2] = system: Tg-SwDI mouse model of AD and cerebral amyloid angiopathy (CAA); assay: Cerebral microbleeds (ARIA-H) in Tg-SwDI mice given PNA5 with or without anti-Aβ antibody; assay type: in vivo; details: Tg-SwDI mice aged 12-13 months; PNA5 30 μL, with PBS or anti-Aβ antibody 3 mg/kg; 2 months; tissue analysis (FIGS. 1A and 1B)
Description: The effect the Ang-(1-7) oligopeptide PNA5 had on cerebral microbleeds (ARIA-H) in a mouse model of AD and cerebral amyloid angiopathy (CAA) was studied.
Tg-SwDI mice aged 12-13 months were administered: (1) the PNA5 vehicle, without PNA5, and PBS, (2) vehicle and an anti-Aβ antibody, (3) PNA5 and PBS, or (4) PNA5 and an anti-Aβ antibody. The anti-AB antibody therapy (IgG) was administered in an amount of 3 mg/kg. The PNA5 was administered in an amount of 30 μL. For groups receiving the PNA5 alone (Group 3), the compounds were administered for […] which point they were administered a […] (NOR) test and Nest building test (FIG. 2) prior to euthanasia and collection of the tissue for analysis of the microbleeds (FIGS. 1A and 1B). For groups receiving the anti-AB antibody and PNA5 (Group 4), the compounds were administered for 2 months at which point they were administered a […] (NOR) test and Nest building test prior (FIG. 2) to euthanasia and collection of the tissue for analysis of the microbleeds (FIGS. 1A and 1B).

Molecule | safe human daily intake [1] | cerebral microbleeds (ARIA-H) [2]
CC(=O)OC[C@H]1O[C@H](O[C@]2(COC(C)=O)O[C@H](COC(=O)C(C)C)[C@@H](OC(=O)C(C)C)[C@@H]2OC(=O)C(C)C)[C@H](OC(=O)C(C)C)[C@@H](OC(=O)C(C)C)[C@@H]1OC(=O)C(C)C [SAIB, sucrose acetoisobutyrate] | up to 20 mg/kg | 
PNA5: Ang-(1-7) derivative Asp Arg Val Tyr Ile His Ser* (glycosylated serine), carboxyl terminal end NH2 (DRVYIHS-NH2; not fully specified (residue 7); also: glycan on Ser7 not given here) |  | decreased
